Legend:
Assay type in all cases: in vivo
Phakopsora pachyrhizi = assay: Test A: preventive spray on soybean seedlings, Asian soybean rust, visual disease rating; details: 250 ppm, 100 = 100% disease control, 0 = no control; for pest or weed control at 250 ppm: Phakopsora pachyrhizi
Botrytis cinerea = assay: Test C: preventive spray on tomato seedlings, gray mold, visual disease rating; details: 250 ppm, 100 = 100% disease control, 0 = no control; for pest or weed control at 250 ppm: Botrytis cinerea
From the text: (§1) General protocol for preparing test solutions for Tests AG: the test compounds were first dissolved in acetone in an amount equal to 3% of the final volume and then suspended at the desired concentration (in ppm) in acetone and purified water (50/50 mix by volume) containing the surfactant PEG400 (polyhydric alcohol esters). The resulting test suspensions were then used in Tests AG. Compounds were sprayed at a concentration of 250 ppm or other indicated rate to the point of run-off on the test plants. The test solution was sprayed to the point of run-off on tomato seedlings. […] A dash (-) indicates no test results.

Phytophthora infestans = assay: whole plant or invertebrate; details: for pest or weed control at 250 ppm: Phytophthora infestans, in Solanum lycopersicum, read-out: Test D disease control rating; for Test D disease control rating: 250 ppm, tomato seedlings, 100 = 100% disease control, 0 = no control
Zymoseptoria tritici = assay: Test E: preventive spray on wheat seedlings, wheat leaf blotch, visual disease rating; details: 250 ppm, 100 = 100% disease control, 0 = no control; for pest or weed control at 250 ppm: Zymoseptoria tritici
From the text: as §1, with “wheat” for “tomato”

[1] = system: Puccinia recondita f. sp. tritici; assay: Test F: preventive spray on wheat seedlings, wheat leaf rust, visual disease rating; details: 250 ppm, 100 = 100% disease control, 0 = no control; for pest or weed control at 250 ppm: Puccinia recondita
From the text: as §1, with “wheat” for “tomato”, “seedlings. The following day the seedlings were inoculated with a spore suspension of Puccinia recondita f. sp. tritici;” for “seedlings.”

[2] = system: Erysiphe graminis f. sp. tritici; assay: Test G: preventive spray on wheat seedlings, wheat powdery mildew, visual disease rating; details: 250 ppm, 100 = 100% disease control, 0 = no control; for pest or weed control at 250 ppm: Blumeria graminis, 192 h
From the text: as §1, with “wheat” for “tomato”

SMILES	pest or weed control at 250 ppm (Phakopsora pachyrhizi) [%]	pest or weed control at 250 ppm (Botrytis cinerea) [%]	pest or weed control at 250 ppm (Phytophthora infestans) [%]	pest or weed control at 250 ppm (Zymoseptoria tritici) [%]	pest or weed control at 250 ppm [1] [%]	pest or weed control at 250 ppm [2] [%]	Test A disease control rating (Phakopsora pachyrhizi) [%]	Test C disease control rating (Botrytis cinerea) [%]	Test D disease control rating (Phytophthora infestans) [%]	Test E disease control rating (Zymoseptoria tritici) [%]	Test F disease control rating [1] [%]	Test G disease control rating [2] [%]
Cn1ncc(Cl)c(C(=O)Nc2ccc(OC(F)(F)F)cc2)c1=O [Compound 41, 5-Chloro-2,3-dihydro-2-methyl-3-oxo-N-[4-(trifluoromethoxy)phenyl]-4-pyridazinecarboxamide]	87	0	0	97	89	0	–	–	–	–	–	–
Cn1ncc(O)c(C(=O)Nc2ccc(-c3ccc(F)cc3)cc2)c1=O [Compound 46]	–	–	–	–	–	–	77	16	40	0	80	0
Cn1ncc(Br)c(C(=O)Nc2ccc(OC(F)(F)F)cc2)c1=O [Compound 42, 5-Bromo-2,3-dihydro-2-methyl-3-oxo-N-[4-(trifluoromethoxy)phenyl]-4-pyridazinecarboxamide]	79	0	0	99	86	0	–	–	–	–	–	–
Cn1ncc(Cl)c(C(=O)Nc2ccc(F)cc2)c1=O [Compound 43]	–	–	–	–	–	–	78	79	68	4	97	0
Cn1ncc(Cl)c(C(=O)Nc2ccccc2-c2ccc(Cl)cc2)c1=O [Compound 33]	–	–	–	–	–	–	48	0	0	0	97	0
Cn1ncc(O)c(C(=O)Nc2ccc(S(F)(F)(F)(F)F)cc2)c1=O [Compound 91, [4-[[[2,3-Dihydro-5-hydroxy-2-methyl-3-oxo-4-pyridazinyl]carbonyl]amino]phenyl]pentafluorosulfur]	46	0	97	100	99	89	–	–	–	–	–	–
Cc1ccc(NC(=O)c2c(Cl)cnn(C)c2=O)cc1 [Compound 31]	–	–	–	–	–	–	65	92	0	0	95	0
Cn1ncc(OS(C)(=O)=O)c(C(=O)Nc2ccc(F)cc2)c1=O [Compound 101]	–	–	–	–	–	–	78	0	9	78	99	0
Cn1ncc(OS(C)(=O)=O)c(C(=O)Nc2ccc(OC(F)(F)F)cc2)c1=O [Compound 90]	–	–	–	–	–	–	98	60	78	100	98	0
Cn1ncc(OS(C)(=O)=O)c(C(=O)Nc2ccc(Oc3ccccc3)cc2)c1=O [Compound 106]	–	–	–	–	–	–	98	0	85	83	86	81
Cn1ncc(O)c(C(=O)Nc2ccccc2-c2ccc(Cl)cc2)c1=O [Compound 28]	–	–	–	–	–	–	0	0	0	0	97	27
Cn1ncc(OS(C)(=O)=O)c(C(=O)Nc2ccc(OC(F)F)cc2)c1=O [Compound 97, N-[4-(Difluoromethoxy)phenyl]-2,3-dihydro-2-methyl-5-[(methylsulfonyl)oxy]-3-oxo-4-pyridazinecarboxamide]	95	40	95	100	99	91	–	–	–	–	–	–
Cn1ncc(O)c(C(=O)Nc2ccccc2F)c1=O [Compound 36]	–	–	–	–	–	–	31	0	94	0	98	78
O=C(Nc1ccc(OC(F)(F)F)cc1)c1c(O)cnn(-c2ccccc2)c1=O [Compound 60]	–	–	–	–	–	–	0	0	88	92	88	57
COc1ccc(NC(=O)c2c(Cl)cnn(C)c2=O)cc1 [Compound 30]	–	–	–	–	–	–	60	0	0	0	96	0
Cn1ncc(OS(C)(=O)=O)c(C(=O)Nc2ccc(C(F)(F)F)cc2F)c1=O [Compound 102]	–	–	–	–	–	–	99	41	26	95	99	0
Cn1ncc(O)c(C(=O)Nc2ccccc2Br)c1=O [Compound 35]	–	–	–	–	–	–	0	0	71	0	98	0

— patent publication US20190133128A1, “Fungicidal pyridazinones” (FMC Corporation, priority 2017, published 2019)
